According to PMC9103789 (International Journal of Molecular Sciences, 2022):
Values joined by “and” are separate entries in the source; they are usually repeats but may differ in a detail not shown here. Identical values can stand only once.

Columns and labels:
[1] = target: T1, CYP3A4 (CYP3A5 *3/*3 HLMs) (Homo sapiens, UniProt P08684); assay: Reversible inhibition (RI) assay in genotyped HLMs; assay type: in vitro ADME; conditions: Dixon plot, tacrolimus substrate
T1 construct: replacing pooled HLMs with CYP3A5 * 3/*3 HLMs; tissue Transheep Co., Ltd. (Shanghai, China) lot: 0710253; host or cells: human liver microsomes, CYP3A5 *3/*3 genotype
Method: (§1) The reactions started upon the addition of NADPH and were terminated after 10 min by adding 200 μL of ice-cooled acetonitrile containing 0.1 μM of ascomycin (internal standard). […] The reaction was also terminated with ice-cooled acetonitrile. All experiments were carried out in triplicates.
(§2) Linear regression implemented in GraphPad Prism was plotted with the reciprocal value of metabolic reaction rate (1/v) against inhibitor concentration. The intersection of lines was used to calculate the Ki value.

CYP3A4 = target: T2, CYP3A4 (Homo sapiens, UniProt P08684); assay: Time-dependent inhibition (TDI) assay in CYP3A5 *3/*3 HLMs; assay type: in vitro ADME; conditions: for KI / kinact/KI: CYP3A4, genotyped HLMs; for kinact: human, CYP3A5 *3/*3 genotyped human liver microsomes, probe testosterone (200 μM), 6β-hydroxytestosterone formation
T2 construct: replacing pooled HLMs with CYP3A5 * 3/*3 HLMs; tissue Transheep Co., Ltd. (Shanghai, China) lot: 0710253; host or cells: human liver microsomes, CYP3A5 *3/*3 genotype
Method: (§3) A two-step protocol was followed to perform the general TDI assay. […] The reaction was initiated upon addition of NADPH (1 mM). At the designated time points (0, 5, 10, 20, or 30 min), an aliquot (20 μL) of the incubation mixture was transferred to a 180-microliter pre-warmed solution containing PBS (0.1 M), testosterone (200 μM) and NADPH (1 mM) for another 10-minute incubation. […] For the CYP3A5 experiment, CYP3cide and CYP3A5 * 1/*3 HLMs were pre-warmed for 3 min before the reaction initiation. […] All experiments were carried out in triplicates.
(§4) [I] stands for the inhibitor concentration. A high ratio of kinact over KI indicates great inhibitory potency. (3) kobs=kinact×[I]/KI+[I]

CYP3A5 = target: T3, CYP3A5 (Homo sapiens, UniProt P20815); assay: Time-dependent inhibition (TDI) assay in CYP3A5 *1/*3 HLMs with CYP3cide; assay type: in vitro ADME
T3 construct: For the CYP3A5 experiment, CYP3cide and CYP3A5 * 1/*3 HLMs were pre-warmed; tissue Transheep Co., Ltd. (Shanghai, China) lot: 0710232; host or cells: human liver microsomes, CYP3A5 *1/*3 genotype, treated with CYP3cide
Method: as §3, with “incubation. The reaction was stopped with ice-cooled acetonitrile containing prednisolone (0.315 μM).” for “incubation.”
Kinetic parameters of the TDI (KI and kinact refer to the inhibitor concentration causing half-maximal inactivation and the maximal inactivation rate constant, respectively) were determined with Equation (3). kobs refers to the observed inactivation rate of the affected enzyme, determined by the negative slope of the linear regression. kinact is calculated with the negative reciprocal value of the straight line at the Y-intercept, while the interception on X-axis represents KI. [I] stands for the inhibitor concentration. A high ratio of kinact over KI indicates great inhibitory potency. (3) kobs=kinact×[I]/KI+[I]

CYP3A [2] = assay: Reversible inhibition (RI) assay, tacrolimus metabolism in pooled HLMs; assay type: in vitro ADME, human; conditions: human, pooled human liver microsomes, pH 7.4, probe tacrolimus (0.25, 0.5, 1, 2 μM), Dixon plot, tacrolimus substrate
Method: as §1, with “triplicates. […] The intersection of lines was used to calculate the Ki value.” for “triplicates.”

CYP3A (pooled HLMs) = assay: as above; assay type: in vitro ADME, human; conditions: Dixon plot
Method: as §1, with “triplicates. […] The intersection of lines was used to calculate the Ki value.” for “triplicates.”

[3] = parameters: method as in PMID 25392942; conditions: after oral administration of WZC, healthy Chinese, plasma; cited from earlier work
[4] = Intrinsic clearance in human liver microsomes (in-house data); assay type: in vitro ADME; conditions: read-out: CLint,HLM
Source text: All physicochemical and in vitro pharmacokinetic parameters were obtained from the literature or predicted by Simcyp® Simulator (version 16, Certara, Sheffield, U.K.). The intrinsic clearance value of pooled HLMs and human tacrolimus PBPK model was retrieved from our previous publication. The models for CYP3A5 expressers/non-expressers were built by modifying our established model with intrinsic clearance values of each CYP isoform. With the inhibitory parameters acquired from our experiments, a DDI module was incorporated into the PBPK model of tacrolimus.

[5] = target: T4, CYP3A5 (CYP3A5 *1/*3 HLMs + CYP3cide) (Homo sapiens, UniProt P20815); assay: Reversible inhibition (RI) assay in genotyped HLMs with CYP3cide; assay type: in vitro ADME; conditions: Dixon plot, tacrolimus substrate
T4 construct: For the CYP3A5 experiment, CYP3cide and CYP3A5 * 1/*3 HLMs were pre-warmed; tissue Transheep Co., Ltd. (Shanghai, China) lot: 0710232; host or cells: human liver microsomes, CYP3A5 *1/*3 genotype, treated with CYP3cide
Method: as §1, §2

CYP3A [6] = assay: IC50 shift assay in pooled HLMs (testosterone 6β-hydroxylation); assay type: in vitro ADME; conditions: human, pooled human liver microsomes, pH 7.4, probe testosterone (200 μM); for IC50 at 30 min / IC50: pooled HLMs; for IC50 at 30 min: 30 min preincubation with NADPH; for IC50: no preincubation
Method: Pooled HLMs were used in this assay to determine the IC50 shift and identify time-dependent inhibition. The experiment was divided into two groups, depending on preincubation status. […] In all samples, the final concentrations of organic solvents were not more than 1% (V/V). Schizandrol (A or B) was pre-incubated with the pooled HLMs and testosterone for 3 min at […]. In the groups without 30-minute preincubation, the reaction was started upon the addition of NADPH and terminated by 200 μL of ice-cooled methanol containing 0.315 μM of prednisolone (internal standard). […] Next, testosterone was added to initiate the reaction. The reaction was terminated with the same method. All experiments were carried out in triplicates.
The formation of 6β-hydroxytestosterone in a control group was used as a surrogate marker for remaining enzymes’ activity. […] IC50 shift value was determined by Equation (2). […] (2) IC50 shift=IC50 without NADPH preincubation/IC50 with NADPH preincubation

[7] = parameters: method as in PMID 32250458; conditions: cited from earlier work
CYP3A [8] = assay: Time-dependent inhibition (TDI) assay in pooled HLMs; assay type: in vitro ADME, human; conditions: for kinact: human, pooled human liver microsomes, probe testosterone (200 μM), 6β-hydroxytestosterone formation
Method: as §3, §4

[9] = parameters: method as in PMID 24195812; conditions: rats, oral administration of SZB; cited from earlier work

T3 sequence (P20815 whole entry): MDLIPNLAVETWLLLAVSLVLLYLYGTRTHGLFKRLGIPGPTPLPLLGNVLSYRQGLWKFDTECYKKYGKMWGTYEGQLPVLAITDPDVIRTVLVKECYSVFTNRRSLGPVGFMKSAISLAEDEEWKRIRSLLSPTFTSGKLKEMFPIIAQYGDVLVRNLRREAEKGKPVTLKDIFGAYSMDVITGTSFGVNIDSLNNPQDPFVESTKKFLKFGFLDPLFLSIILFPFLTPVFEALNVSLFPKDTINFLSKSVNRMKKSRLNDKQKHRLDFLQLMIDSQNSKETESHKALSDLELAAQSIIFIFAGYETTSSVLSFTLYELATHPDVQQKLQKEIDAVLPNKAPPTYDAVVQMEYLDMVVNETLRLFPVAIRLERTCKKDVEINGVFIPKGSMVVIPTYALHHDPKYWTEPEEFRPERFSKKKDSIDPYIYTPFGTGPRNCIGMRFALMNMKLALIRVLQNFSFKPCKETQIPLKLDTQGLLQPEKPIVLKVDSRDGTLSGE
T2 sequence (P08684 whole entry): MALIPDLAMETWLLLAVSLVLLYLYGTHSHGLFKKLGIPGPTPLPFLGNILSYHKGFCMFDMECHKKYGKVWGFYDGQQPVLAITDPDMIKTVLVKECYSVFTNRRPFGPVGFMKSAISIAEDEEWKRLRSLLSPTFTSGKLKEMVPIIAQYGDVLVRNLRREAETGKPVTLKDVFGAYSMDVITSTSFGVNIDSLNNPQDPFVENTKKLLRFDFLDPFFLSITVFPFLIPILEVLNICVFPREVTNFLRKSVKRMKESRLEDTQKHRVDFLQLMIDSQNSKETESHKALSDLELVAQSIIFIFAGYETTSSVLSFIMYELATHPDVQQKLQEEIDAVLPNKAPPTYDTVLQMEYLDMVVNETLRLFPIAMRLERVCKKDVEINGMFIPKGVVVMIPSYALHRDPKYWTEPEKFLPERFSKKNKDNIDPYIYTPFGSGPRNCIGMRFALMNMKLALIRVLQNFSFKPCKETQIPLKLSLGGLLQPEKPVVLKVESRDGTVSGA

Structure (SMILES)	KI (CYP3A4) [µM]	kinact/KI (CYP3A4) [M⁻¹ s⁻¹]	kinact (CYP3A4) [s⁻¹]	reversible inhibition on CYP3A (pattern) (CYP3A (pooled HLMs))	AUC, observed [3] [ng·h/mL]	Cmax, observed [3] [ng/mL]	Tmax, observed [3] [h]	microsomal CLint [4] [µL/min/mg]	IC50 at 30 min (CYP3A [6]) [µM]	IC50 (CYP3A [6]) [µM]	KI (CYP3A [8]) [µM]	kinact/KI (CYP3A [8]) [M⁻¹ s⁻¹]	kinact (CYP3A [8]) [s⁻¹]	also measured
COc1cc2c(c(OC)c1OC)-c1c(cc3c(c1OC)OCO3)C[C@H](C)[C@@](C)(O)C2 [SZB, Schizandrol B]	0.69	8937	0.00617	competitive and reversible inhibition pattern	242.97	65.18	1.13	4.5	0.56	12	0.43	1705.5	0.000733	Ki [1]: 2.18 µM and 2.03 µM; KI (CYP3A5; CYP3A5, genotyped HLMs): 0.5 µM; kinact/KI (CYP3A5; CYP3A5, genotyped HLMs): 300 M⁻¹ s⁻¹; kinact (CYP3A5; human, CYP3A5 *1/*3 genotyped human liver microsomes with CYP3cide, probe testosterone (200 μM), 6β-hydroxytestosterone formation, with CYP3cide (concentration not stated for this test)): 0.00015 s⁻¹; Ki at 10 min (CYP3A [2]): 5.82 µM; Ki [5]: 2.03 µM and 2.18 µM; increase in bosutinib exposure [7]: 200%; increase in systemic exposure of tacrolimus [9]: 598.4%
COc1cc2c(c(OC)c1OC)-c1c(cc(OC)c(OC)c1OC)C[C@](C)(O)[C@@H](C)C2 [SZA, Schizandrol A]	15.38	26	0.0004	little reversible inhibition	467.14	111.37	1.81	50	40.5	63.5	15.625	30.93	0.000483	IC50 shift at 30 min (CYP3A [6]; IC50 without NADPH preincubation / IC50 with NADPH preincubation): 1.57
